In patent publication US9220411B2, “In-vivo optical imaging method including analysis of dynamic images” (THE GENERAL HOSPITAL CORPORATION, priority 2006, dated 2015):

Experiment: Dynamic in-vivo fluorescence imaging of dye biodistribution after tail vein injection
Design: species or system mouse
Text: FIG. 1 illustrates one embodiment of a fluorescent dynamic optical imaging system 10 for imaging small animals such as mice. The imaging system 10 includes an optical detector 16 which is operable to acquire various images of the mouse. The imaging system 10 also includes a processor and display device 11 which is operable to generate and display other images of the mouse.
The system 10 also includes an imaging platform 12 for supporting a mouse in a desired arrangement, such as in a prone position or a supine position. In a preferred embodiment, mirrors 14 are arranged at 45 degree angles with respect to the imaging platform such that multiple views of the mouse, i.e., a top and/or bottom view, and side views of the mouse, are within the field of view of the optical detector 16, which is arranged above the imaging platform 12. Other embodiments can include other arrangements of optical detector 16 and mirrors to provide other views of the mouse. In one embodiment, the optical detector 16 is a cooled 14 bit charge coupled device (CCD) camera including a relay lens 19 and the field of view is approximately 9 cm by 9 cm. Thus, although the camera produces 2D images, these are “enhanced” 2D images since multiple views of the mouse are obtained.
Bifurcated liquid light guides 25 can be used to deliver light from the sources 18A, 18B to shine on the mouse. Other means can also be used. The light sources 18A, 18B and any corresponding filter elements are selected to have desired characteristics according to the optical contrast substances to be used in the imaging process. For example, when using a fluorescent dye such as indocyanine green (ICG) dye, light source 18A can include two laser diodes (160 mW total) to provide excitation light at 785 nm to excite the ICG dye. When using a fluorescent dye such as Dextran Texas Red dye, light source 18B can be a halogen light source, and a motorized filter wheel having a plurality of filter elements can be used to provide filtered light at a desired excitation wavelength range of 570 nm plus or minus 20 nm to excite the Dextran Texas Red dye. The respective light sources can be controlled by an electronic shutter in the 570 nm light path, or digital modulation of the laser diodes to allow synchronization of illumination with the filter elements, tunable filter, and image acquisition.
At process block 34, a second optical contrast substance is introduced or activated in the mouse. For example, a dye such as an ICG dye or a Dextran Texas Red dye can be used and can be injected into the tail vein of an anesthetized mouse. ICG dye is a good choice because it is widely available, clinically approved, and it excites and emits in the near infra-red (NIR) portion of the spectrum, which is advantageous in that light scatter is lower and penetration is higher at NIR wavelengths. In one embodiment, a dye consisting of 0.05 ml of 260 uM ICG dye (Cardiogreen, Fluka) is used. In another embodiment, […] of 360 uM of Dextran Texas Red dye (70,000 MW, Invitrogen) can be used.
At process block 38, a time series of anatomical image data sets of the second optical contrast substance is acquired using the optical detector, preferably while the animal is in the same desired arrangement. This should preferably be performed right after the second optical contrast is introduced. If the second optical contrast agent is a fluorescent dye, a light source having the appropriate spectral characteristics is applied to excite the fluorescent dye. […]

uptake by the liver (mouse, longer timescales, preliminary data): rapid and sustained uptake by the liver
fluorescence signal, initial organ distribution (prone mouse, tail vein injection, early images (first 15 seconds), initial circulation): initially the lungs are bright
Compound: CC1(C)C(/C=C/C=C/C=C/C=C2\N(CCCCS(=O)(=O)O)c3ccc4ccccc4c3C2(C)C)=[N+](CCCCS(=O)(=O)[O-])c2ccc3ccccc3c21 [ICG, indocyanine green]
uptake by adipose tissue (mouse, longer timescales (25 minutes), preliminary data): late uptake by adipose tissue, remaining high after 25 minutes
distribution of dye in the body (prone mouse, by 117 seconds after injection): distributed fairly diffusely throughout the mouse
fluorescence signal, next organ distribution (prone mouse, tail vein injection, early images (first 15 seconds), after the lung phase): bright signal is seen in the brain, kidneys, spleen and spine
